In PubChem BioAssay AID1963837 (Molecular Pharmacology Branch, DTP, NCI, 2024):

Test system: 843126-344-R-J1-PDC complex spheroid viability
Assay: Anticancer human tumor 843126-344-R-J1-PDC patient-derived melanoma cell line growth inhibition [POLQ]
Settings: for IC50: curve of first compound; for viability, T/C: stronger effect = lower value
Summary of the method: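 Three-cell-type spheroids modelling solid tumor plus stroma served as the readout system; POL inhibitors were tested individually and in combination, concentration ranges set by clinical Cmax where known.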

[1] = second compound 0.0316 µM, first compound 0.0316 µM
[2] = second compound 0.0316 µM, first compound 0.1 µM
[3] = second compound 0.0316 µM, first compound 0.316 µM
[4] = second compound 0.0316 µM, first compound 1 µM
[5] = second compound 0.0316 µM, first compound 3.16 µM
[6] = second compound 0.0316 µM, first compound 10 µM
[7] = second compound 0.1 µM, first compound 0.0316 µM
[8] = second compound 0.1 µM, first compound 0.1 µM
[9] = second compound 0.1 µM, first compound 0.316 µM
[10] = second compound 0.1 µM, first compound 1 µM
[11] = second compound 0.1 µM, first compound 3.16 µM
[12] = second compound 0.1 µM, first compound 10 µM
[13] = second compound 0.316 µM, first compound 0.0316 µM
[14] = second compound 0.316 µM, first compound 0.1 µM
[15] = second compound 0.316 µM, first compound 0.316 µM
[16] = second compound 0.316 µM, first compound 1 µM
[17] = second compound 0.316 µM, first compound 3.16 µM
[18] = second compound 0.316 µM, first compound 10 µM
[19] = second compound 1 µM, first compound 0.0316 µM
[20] = second compound 1 µM, first compound 0.1 µM
[21] = second compound 1 µM, first compound 0.316 µM
[22] = second compound 1 µM, first compound 1 µM
[23] = second compound 1 µM, first compound 3.16 µM
[24] = second compound 1 µM, first compound 10 µM
[25] = second compound 3.16 µM, first compound 0.0316 µM
[26] = second compound 3.16 µM, first compound 0.1 µM
[27] = second compound 3.16 µM, first compound 0.316 µM
[28] = second compound 3.16 µM, first compound 1 µM
[29] = second compound 3.16 µM, first compound 3.16 µM
[30] = second compound 3.16 µM, first compound 10 µM
[31] = second compound 10 µM, first compound 0.0316 µM
[32] = second compound 10 µM, first compound 0.1 µM
[33] = second compound 10 µM, first compound 0.316 µM
[34] = second compound 10 µM, first compound 1 µM
[35] = second compound 10 µM, first compound 3.16 µM
[36] = second compound 10 µM, first compound 10 µM
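Throughout, for viability, T/C: spheroids exposed to drugs for seven days before readout.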

CC(C)n1c(=O)n(C)c2cnc3cc(F)c(-c4ccc(OCCCN5CCCCC5)nc4)cc3c21 + Cc1cccc(N(C)C(=O)C2C(O)CCN2c2nc(C)cc(C(F)(F)F)c2C#N)c1
IC50 (second compound 0.0316 µM): > 10 µM | IC50 (second compound 0.1 µM): > 10 µM | IC50 (second compound 0.316 µM): > 10 µM | IC50 (second compound 1 µM): > 10 µM | IC50 (second compound 3.16 µM): > 10 µM | IC50 (second compound 10 µM): > 10 µM | viability, T/C [1]: 100% | viability, T/C [2]: 87.7% | viability, T/C [3]: 97.2% | viability, T/C [4]: 78.7% | viability, T/C [5]: 93% | viability, T/C [6]: 60.5% | viability, T/C [7]: 90.1% | viability, T/C [8]: 104% | viability, T/C [9]: 72.7% | viability, T/C [10]: 83.1% | viability, T/C [11]: 78.1% | viability, T/C [12]: 67.1% | viability, T/C [13]: 92% | viability, T/C [14]: 96.9% | viability, T/C [15]: 88.7% | viability, T/C [16]: 89.8% | viability, T/C [17]: 87.2% | viability, T/C [18]: 55.1% | viability, T/C [19]: 98.3% | viability, T/C [20]: 78% | viability, T/C [21]: 86.7% | viability, T/C [22]: 78.5% | viability, T/C [23]: 81% | viability, T/C [24]: 64.3% | viability, T/C [25]: 94.8% | viability, T/C [26]: 84.5% | viability, T/C [27]: 106% | viability, T/C [28]: 99.1% | viability, T/C [29]: 91.9% | viability, T/C [30]: 73.1% | viability, T/C [31]: 93.4% | viability, T/C [32]: 90.2% | viability, T/C [33]: 89.1% | viability, T/C [34]: 77.9% | viability, T/C [35]: 81.9% | viability, T/C [36]: 61.2%

CCCS(=O)(=O)Nc1ccc(F)c(C(=O)c2c[nH]c3ncc(-c4ccc(Cl)cc4)cc23)c1F + COC1C(OC(N)=O)C(O)C(Oc2ccc3c(O)c(NC(=O)c4ccc(O)c(CC=C(C)C)c4)c(=O)oc3c2C)OC1(C)C
IC50 (second compound 0.0316 µM): > 10 µM | IC50 (second compound 0.1 µM): > 10 µM | IC50 (second compound 0.316 µM): > 10 µM | IC50 (second compound 1 µM): > 10 µM | IC50 (second compound 3.16 µM): > 10 µM | IC50 (second compound 10 µM): > 10 µM | viability, T/C [1]: 88.8% | viability, T/C [2]: 87.5% | viability, T/C [3]: 62.7% | viability, T/C [4]: 72.9% | viability, T/C [5]: 75.6% | viability, T/C [6]: 60% | viability, T/C [7]: 77.5% | viability, T/C [8]: 81.7% | viability, T/C [9]: 84.5% | viability, T/C [10]: 64.5% | viability, T/C [11]: 72.5% | viability, T/C [12]: 72.5% | viability, T/C [13]: 78.5% | viability, T/C [14]: 97.1% | viability, T/C [15]: 86.3% | viability, T/C [16]: 70.5% | viability, T/C [17]: 71.7% | viability, T/C [18]: 70.8% | viability, T/C [19]: 82.2% | viability, T/C [20]: 98.2% | viability, T/C [21]: 80.4% | viability, T/C [22]: 87.6% | viability, T/C [23]: 65.5% | viability, T/C [24]: 65% | viability, T/C [25]: 92.1% | viability, T/C [26]: 77.9% | viability, T/C [27]: 91.2% | viability, T/C [28]: 72.6% | viability, T/C [29]: 77.9% | viability, T/C [30]: 77.2% | viability, T/C [31]: 83.2% | viability, T/C [32]: 106% | viability, T/C [33]: 83.2% | viability, T/C [34]: 75.2% | viability, T/C [35]: 75.3% | viability, T/C [36]: 64.3%
